Usually IC50 stands for the concentration at which inhibition is half-maximal.

Structures are written as SMILES.

This assay concerns the target T1, CDK2 (Homo sapiens, UniProt P24941).
T1 construct: The expressed protein was approximately 34 kDa in size; made in house; host or cells: SF9 insect cells (baculovirus, pFASTBAC)
The experiment in a line: CDK2 in vitro kinase assay (SPA, 33P-ATP, biotinylated Histone H1 peptide). In kind it is biochemical. To be noted: recombinant cyclin A or E-dependent CDK2 from baculovirus/SF9 cells; 1 hour at room temperature; 8 point dilutions in duplicate.

For `Nc1cc2nc(-c3ccccc3)cc(N)n2n1`, the IC50 worked out at 80 nM.

With `Nc1nn2c(N)cc(-c3ccccc3)nc2c1Br`, the IC50 was 4670 nM.
